In brackets after ≈: the same amount, converted by molar mass.
Columns and labels:
Assay in all cases: ≥ marks a high value that may be exact or a test limit, other limits are often not marked, values filed in µg/mL are converted to µM
[1] = test system: Acinetobacter baumannii ATCC 19606
Acinetobacter baumannii = test system: Acinetobacter baumannii
[2] = test system: Bacillus subtilis ATCC 23857
[3] = test system: Enterococcus faecalis ATCC 29212
Escherichia coli 780 = test system: Escherichia coli 780
Escherichia coli 850 = test system: Escherichia coli 850
[4] = test system: Escherichia coli ATCC 25922
[5] = test system: Klebsiella pneumoniae ATCC 700603
[6] = test system: Pseudomonas aeruginosa 2760
[7] = test system: Pseudomonas aeruginosa ATCC 27853
[8] = test system: Staphylococcus aureus 725
[9] = test system: Staphylococcus aureus 936
[10] = test system: Staphylococcus aureus ATCC 25923
Listeria grayi DSM 20601 = test system: Listeria grayi DSM 20601
[11] = test system: Staphylococcus epidermidis DSM 3269
[12] = test system: Candida albicans ATCC 10231
Candida glabrata 090902 = test system: Candida glabrata 090902
[13] = test system: Enterobacter cloacae CGMCC 1.57
[14] = test system: Enterococcus faecalis 981
[15] = test system: Enterococcus faecium 091299
[16] = test system: Klebsiella pneumoniae 08040724
[17] = test system: Nocardia asteroides 201118
[18] = test system: Psychrobacter faecalis X29
[19] = test system: Salmonella enterica subsp. enterica serovar Typhimurium ATCC 14028
[20] = test system: Staphylococcus aureus ATCC 29313
[21] = test system: Acinetobacter baumannii AB1
[22] = test system: Acinetobacter baumannii AB2
[23] = test system: Acinetobacter baumannii AB3
Pseudomonas aeruginosa 1 = test system: Pseudomonas aeruginosa 1
Pseudomonas aeruginosa 5 = test system: Pseudomonas aeruginosa 5
[24] = test system: Escherichia coli K12 MG1655
[25] = test system: Staphylococcus aureus 68 HER 1049
[26] = test system: Carnobacterium maltaromaticum UI49
[27] = test system: Lacticaseibacillus casei NCDO 2713
[28] = test system: Lacticaseibacillus casei subsp. casei NCDO 161
[29] = test system: Lactiplantibacillus plantarum 965
[30] = test system: Lactiplantibacillus plantarum UI50
[31] = test system: Latilactobacillus sakei 706
[32] = test system: Latilactobacillus sakei NCDO 2714
[33] = test system: Pediococcus pentosaceus NCDO 990
[34] = test system: Pediococcus pentosaceus Pac1.0
[35] = test system: Weissella viridescens NCDO 1655

**Q.** Which MIC [1] does the source give for `CC[C@H](C)[C@H](NC(=O)[C@H](CCCCN)NC(=O)[C@H](CCCCN)NC(=O)[C@H](C)NC(=O)[C@H](CC(C)C)NC(=O)[C@H](C)NC(=O)[C@H](C)NC(=O)[C@H](CC(C)C)NC(=O)[C@@H]1CCCN1C(=O)[C@H](CCCCN)NC(=O)[C@H](CC(C)C)NC(=O)[C@H](CC(N)=O)NC(=O)[C@@H](NC(=O)[C@H](CCCCN)NC(=O)CNC(=O)[C@H](CC(C)C)NC(=O)[C@H](CC(C)C)NC(=O)[C@H](Cc1ccc(O)cc1)NC(=O)CNC(=O)[C@H](C)N)[C@@H](C)CC)C(=O)N[C@@H](CC(C)C)C(N)=O` [AGYLLGKINLKPLAALAKKIL] here?
**A.** Its MIC is 3.62 µM (≈ 8 µg/mL).

**Q.** What about the MIC (Acinetobacter baumannii) of the same compound?
**A.** Its MIC is 3.62 µM (≈ 8 µg/mL).

**Q.** What about the MIC [2] of the same compound?
**A.** Its MIC is 3.62 µM (≈ 8 µg/mL).

**Q.** And the MIC [3]?
**A.** Its MIC is greater than 58 µM.

**Q.** What about the MIC (Escherichia coli 780) of the same compound?
**A.** The MIC was 14.5 µM (≈ 32 µg/mL).

**Q.** What about the MIC (Escherichia coli 850) of the same compound?
**A.** The MIC was 7.24 µM (≈ 16 µg/mL).

**Q.** And the MIC [4]?
**A.** Its MIC is 7.24 µM (≈ 16 µg/mL).

**Q.** What about the MIC [5] of the same compound?
**A.** The MIC was 29 µM (≈ 64 µg/mL).

**Q.** What about the MIC [6] of the same compound?
**A.** The MIC was 29 µM (≈ 64 µg/mL).

**Q.** What about the MIC [7] of the same compound?
**A.** The MIC was 58 µM (≈ 128 µg/mL).

**Q.** What about the MIC [8] of the same compound?
**A.** Its MIC is 29 µM (≈ 64 µg/mL).

**Q.** What about the MIC [9] of the same compound?
**A.** The MIC was no less than 58 µM.

**Q.** What about the MIC [10] of the same compound?
**A.** Its MIC is 58 µM (≈ 128 µg/mL).

**Q.** How did the MIC (Listeria grayi DSM 20601) turn out when `CC[C@H](C)[C@H](NC(=O)CNC(=O)[C@H](CO)NC(=O)[C@@H](N)CS)C(=O)N[C@H](C(=O)N[C@@H](CCCCN)C(=O)N[C@@H](CCC(N)=O)C(=O)N[C@H](C(=O)N[C@@H](CS)C(=O)N[C@H](C(=O)N[C@@H](CS)C(=O)N[C@@H](Cc1ccc(O)cc1)C(=O)N[C@@H](CCCN=C(N)N)C(=O)N[C@@H](CCCCN)C(=O)O)[C@@H](C)O)[C@@H](C)O)[C@@H](C)CC` [CSGIIKQTCTCYRK] was run?
**A.** The MIC was 30 µM (≈ 48.1 µg/mL).

**Q.** And the MIC [11]?
**A.** The MIC was 30 µM (≈ 48.1 µg/mL).

**Q.** For `CC[C@H](C)[C@H](NC(=O)CNC(=O)[C@@H](NC(=O)[C@H](C)NC(=O)[C@H](C)NC(=O)[C@H](CCCCN)NC(=O)[C@@H](NC(=O)[C@H](CC(C)C)NC(=O)CNC(=O)[C@@H]1CCCN1C(=O)[C@H](CC(C)C)NC(=O)[C@@H](N)Cc1ccccc1)[C@@H](C)CC)C(C)C)C(=O)NCC(=O)N[C@@H](CO)C(=O)N[C@H](C(=O)N[C@H](C(=O)N[C@@H](Cc1ccccc1)C(=O)N[C@H]1CSSC[C@@H](C(=O)O)NC(=O)[C@H](CCCCN)NC(=O)[C@H](CCCN=C(N)N)NC(=O)[C@H](CO)NC(=O)[C@H]([C@@H](C)CC)NC(=O)[C@H](CCCCN)NC1=O)[C@@H](C)CC)[C@@H](C)O` [FLPGLIKAAVGIGSTIFCKISRKC], which MIC [12] is on record?
**A.** The MIC was 50 µM (≈ 126 µg/mL).

**Q.** What about the MIC (Candida glabrata 090902) of the same compound?
**A.** Its MIC is 3.1 µM (≈ 7.82 µg/mL).

**Q.** What about the MIC [13] of the same compound?
**A.** The MIC was no less than 100 µM.

**Q.** What about the MIC [14] of the same compound?
**A.** The MIC was 3.1 µM (≈ 7.82 µg/mL).

**Q.** And the MIC [15]?
**A.** The MIC was no less than 100 µM.

**Q.** And the MIC [4]?
**A.** Its MIC is 100 µM (≈ 252 µg/mL).

**Q.** What about the MIC [16] of the same compound?
**A.** The MIC was no less than 100 µM.

**Q.** What about the MIC [17] of the same compound?
**A.** Its MIC is 3.1 µM (≈ 7.82 µg/mL).

**Q.** And the MIC [18]?
**A.** Its MIC is 25 µM (≈ 63 µg/mL).

**Q.** What about the MIC [10] of the same compound?
**A.** Its MIC is 3.1 µM (≈ 7.82 µg/mL).

**Q.** `CC[C@H](C)[C@H](NC(=O)[C@H](CCCCN)NC(=O)CNC(=O)[C@H](CCSC)NC(=O)[C@H](C)NC(=O)[C@H](Cc1cnc[nH]1)NC(=O)[C@H](C)NC(=O)[C@@H](NC(=O)[C@H](CC(C)C)NC(=O)[C@H](CCC(N)=O)NC(=O)[C@H](CCCCN)NC(=O)CNC(=O)[C@H](C)NC(=O)[C@H](CC(=O)O)NC(=O)[C@H](CCCCN)NC(=O)[C@@H](NC(=O)[C@@H](NC(=O)[C@H](CC(=O)O)NC(=O)[C@H](Cc1ccccc1)NC(=O)[C@@H](NC(=O)CN)C(C)C)[C@@H](C)CC)[C@@H](C)CC)C(C)C)C(=O)N[C@@H](C)C(=O)N[C@@H](CCC(=O)O)C(=O)N[C@@H](CCCCN)C(=O)N[C@H](C(N)=O)C(C)C` [GVFDIIKDAGKQLVAHAMGKIAEKV] was tested. Which MIC [4] did it give?
**A.** Its MIC is 303 µM (≈ 800 µg/mL).

**Q.** And the MIC [5]?
**A.** The MIC was greater than 303 µM.

**Q.** What about the MIC [19] of the same compound?
**A.** The MIC was greater than 303 µM.

**Q.** And the MIC [20]?
**A.** The MIC was no less than 303 µM.

**Q.** `CC[C@H](C)[C@H](NC(=O)[C@H](CCCCN)NC(=O)[C@H](CCCCN)NC(=O)[C@H](Cc1ccc(O)cc1)NC(=O)[C@H](CCC(=O)O)NC(=O)[C@H](CCCN=C(N)N)NC(=O)[C@H](C)NC(=O)[C@@H](N)CC(C)C)C(=O)N[C@H](C(=O)N[C@@H](CCC(=O)O)C(=O)N[C@@H](CCCCN)C(=O)N[C@@H](CC(C)C)C(=O)N[C@@H](CCCCN)C(=O)N[C@@H](CCCN=C(N)N)C(=O)N[C@@H](Cc1c[nH]c2ccccc12)C(=O)N[C@@H](CC(C)C)C(=O)N[C@@H](CCCN=C(N)N)C(=O)N[C@@H](CCC(N)=O)C(=O)N[C@H](C(=O)N[C@@H](CC(C)C)C(=O)N[C@@H](CCCN=C(N)N)C(=O)N[C@H](C(=O)N[C@@H](CC(C)C)C(=O)N[C@@H](CCCN=C(N)N)C(=O)O)[C@@H](C)O)C(C)C)C(C)C` [LAREYKKIVEKLKRWLRQVLRTLR] was tested. Which MIC [21] did it give?
**A.** The MIC was 2.58 µM (≈ 8 µg/mL).

**Q.** And the MIC [22]?
**A.** The MIC was 10.3 µM (≈ 32 µg/mL).

**Q.** What about the MIC [23] of the same compound?
**A.** The MIC was 5.17 µM (≈ 16 µg/mL).

**Q.** What about the MIC [1] of the same compound?
**A.** The MIC was 1.29 µM (≈ 4 µg/mL).

**Q.** And the MIC (Pseudomonas aeruginosa 1)?
**A.** Its MIC is 2.58 µM (≈ 8 µg/mL).

**Q.** What about the MIC (Pseudomonas aeruginosa 5) of the same compound?
**A.** The MIC was 5.17 µM (≈ 16 µg/mL).

**Q.** And the MIC [7]?
**A.** The MIC was 2.58 µM (≈ 8 µg/mL).

**Q.** Which results are given for `CC(C)C[C@H](NC(=O)[C@H](CCCN=C(N)N)NC(=O)[C@H](CCCCN)NC(=O)[C@H](Cc1c[nH]c2ccccc12)NC(=O)[C@H](Cc1c[nH]c2ccccc12)NC(=O)[C@H](CCCCN)NC(=O)[C@H](Cc1c[nH]c2ccccc12)NC(=O)[C@@H](N)Cc1c[nH]c2ccccc12)C(=O)N[C@@H](CCCN=C(N)N)C(=O)N[C@@H](CCCN=C(N)N)C(=O)N[C@@H](CC(C)C)C(=O)N[C@@H](Cc1ccccc1)C(=O)N[C@@H](CC(C)C)C(=O)N[C@@H](CC(C)C)C(=O)N[C@H](C(=O)O)C(C)C` [WWKWWKRLRRLFLLV]?
**A.** MIC [24]: 7.32 µM (≈ 16 µg/mL); MIC [25]: 7.32 µM (≈ 16 µg/mL)

**Q.** With `CC[C@H](C)[C@H](NC(=O)[C@H](C)NC(=O)[C@@H](NC(=O)[C@H](C)NC(=O)CNC(=O)[C@H](CCSC)NC(=O)[C@H](CCC(N)=O)NC(=O)[C@H](CC(C)C)NC(=O)[C@H](CO)NC(=O)[C@@H](N)Cc1ccc(O)cc1)[C@@H](C)O)C(=O)N[C@@H](CCCCN)C(=O)N[C@@H](CCC(N)=O)C(=O)N[C@H](C(=O)N[C@@H](CCCCN)C(=O)N[C@@H](CCCCN)C(=O)N[C@@H](CC(C)C)C(=O)N[C@@H](Cc1ccccc1)C(=O)N[C@@H](CCCCN)C(=O)N[C@@H](CCCCN)C(=O)N[C@@H](Cc1c[nH]c2ccccc12)C(=O)NCC(=O)N[C@@H](Cc1c[nH]c2ccccc12)C(=O)O)C(C)C` [YSLQMGATAIKQVKKLFKKWGW] as the compound, how does the MIC [26] read?
**A.** The MIC was 6 µM (≈ 15.7 µg/mL).

**Q.** And the MIC [27]?
**A.** The MIC was 6 µM (≈ 15.7 µg/mL).

**Q.** And the MIC [28]?
**A.** The MIC was 0.25 µM (≈ 0.653 µg/mL).

**Q.** And the MIC [29]?
**A.** The MIC was 0.5 µM (≈ 1.31 µg/mL).

**Q.** What about the MIC [30] of the same compound?
**A.** Its MIC is 6 µM (≈ 15.7 µg/mL).

**Q.** What about the MIC [31] of the same compound?
**A.** The MIC was 1 µM (≈ 2.61 µg/mL).

**Q.** What about the MIC [32] of the same compound?
**A.** The MIC was 0.25 µM (≈ 0.653 µg/mL).

**Q.** What about the MIC [33] of the same compound?
**A.** The MIC was 6 µM (≈ 15.7 µg/mL).

**Q.** What about the MIC [34] of the same compound?
**A.** Its MIC is 0.1 µM (≈ 0.261 µg/mL).

**Q.** What about the MIC [35] of the same compound?
**A.** Its MIC is 0.05 µM (≈ 0.131 µg/mL).
